For series [1], the system named is EMT6 mammary carcinoma cells. Kind of series: Growth of EMT6 mammary carcinoma cells. The series is classed as cell-based.
Series [2] relates to T1, liver and intestinal microsomal ACAT.
T1 construct: other: 100 μM; other: 44 nM; other: 50 μM
Kind of series: Inhibition of liver and intestinal microsomal ACAT activity. Particulars: using literature IC50 of pyripyropene as standard. The format is biochemical. The procedure:
. Microsomes were prepared from liver and intestinal mucosal scrapings by sequential centrifugation and in vitro ACAT activity assays were done according to the method of Billheimer (Billheimer, J. T. (1985), “Cholesterol acyltransferase,” In Methods in Enzymology 111:286-293). Briefly, 100 μg microsomal protein, 22 μg BSA, and 52 nmol cholesterol and the synthesized drug in 5 μL DMSO were preincubated for 30 minutes at 37° C. in a phosphate buffer (200 μL total volume). After 30 minutes, 1 nmol [^14C]oleoyl-CoA was added as substrate and incubated for an additional 20 minutes. The reaction was stopped with the addition of 1 mL ethanol and lipids were extracted with hexane. Cholesteryl [^14C]oleate formation was quantified by thin-layer chromatography and data are expressed as percent inhibition of ACAT activity (pmol/μg protein per minute) compared to a control sample incubated with no drug. All samples were run in duplicate. […]

For series [3], the system named is MCF-7 human breast cancer cells. In words: Growth of MCF-7 human breast cancer cells. The series is classed as cell-based.
The test system of series [4] is L1210 lymphoblastic leukemia cells. In words: Inhibition of DNA synthesis (3H-thymidine incorporation) in L1210 cells in vitro. The series is classed as cell-based, Murine. The note with it: for IC50: read-out: concentration that inhibits DNA synthesis by 50% (IC50). On the procedure: FIG. 1 illustrates a comparison of the effects of four new tricyclic pyrone derivatives and CPT on DNA synthesis in L1210 cells in vitro. About 2.53×10^6 cells suspended in 0.5 ml of RPMI 1640 medium were incubated at 37° C. for 90 minutes in the presence or absence (control) of the indicated concentrations of drugs. The cells were then pulse-labeled for an additional 30 minutes to determine the rate of ^3H-thymidine incorporation into DNA. DNA synthesis in vehicle-treated control cells was 43,956±4,569 cpm (100±11%). The blank value (1,241±99 cpm) for cells pulse-labeled for 0 minutes with 1 μCi of ^3H-thymidine has been subtracted from the results. Bars: means±SD (n=3).
(§1) All solutions of tricyclic pyrone analogs were dissolved and diluted in 100% ethanol (ETOH), whereas CPT (Sigma Chemical Co., St. Louis, Mo.) solutions were prepared in 100% dimethyl sulfoxide (DMSO). Murine L1210 lymphoblastic leukemia cells, obtained from the American Type Culture Collection (Rockville, Md.), were maintained in continuous exponential growth by twice-a-week passage in RPMI 1640 medium supplemented with 7.5% fortified bovine calf serum (HyClone Laboratories, Inc., Logan, Utah). The cultures were incubated at 37° C. in a humidified atmosphere containing 5% CO2. All drugs were supplemented to the culture medium in 1- or 2 μl aliquots. The concentration of vehicle in the final incubation volume never exceeded 0.2-0.4%. […] Control cells incubated in the absence of drugs were similarly treated with vehicle only and, in every experiment, all incubates received the same volume of solvent.
For DNA synthesis, L1210 cells were resuspended in fresh serum-free RPMI 1640 medium at a density of about 2.5×10^6 cells/0.5 ml. The cells were incubated at 37° C. for 90 min in the presence or absence of drugs and then pulse-labeled for an additional 30 min with 1 μCi of [methyl-^3H]thymidine (51 Ci/mmol; Amersham Corp., Arlington Heights, Ill.). The incubations were terminated by the addition of 0.5 ml of 10% trichloroacetic acid (TCA). After holding on ice for 15 min, the acid-insoluble material was recovered over Whatman GF/A glass microfibre filters and washed thrice with 2 ml of 5% TCA and twice with 2 ml of 100% EtOH. After drying the filters, the radioactivity bound to the acid-precipitable material was determined by liquid scintillation counting in 10 ml of Bio-Safe NA (Research Products International Corp., Mount Prospect, Ill.).
In general terms: Incorporation of labelled thymidine or its analogues reports DNA synthesis.

Series [5] concerns the target T2, tubulin protein from bovine brain (Bos taurus, UniProt P81947+Q6B856).
T2 construct: tubulin protein from bovine brain (2.5 mg/ml); purchased Cytoskeleton (Denver, Colo.); host or cells: bovine brain
In words: Polymerization of pure tubulin in a cell-free system. The series is classed as biochemical. The note with it: 25 μM, 35° C., 20 min, 2.5 mg/ml tubulin. On the procedure: In a final volume of 200 μl, a solution of 2.5 mg/ml tubulin protein from bovine brain, 80 mM PIPES buffer, pH 6.8, 1 mM MgCl2, 1 mM EGTA, 1 mM GTP, and 10% glycerol was incubated at 35° C. for 20 minutes in the presence or absence (control) of 25 μM of compound 2A. The absorbance of the solution at OD340 nm was measured to determine the rate of tubulin polymerization.
Tubulin is a labile protein, which is unstable below 80 mM PIPES, should not be exposed to pH values less than 6.8 or greater than 7.0, and will not polymerize in the presence of Ca^2+. GTP and Mg^2+ are necessary for tubulin nativity and glycerol stabilizes tubulin and lowers the initial concentration required to initiate polymerization.
The ability of 2A to alter the polymerization of pure tubulin in a cell-free system in vitro was analyzed using the assay kit purchased from Cytoskeleton (Denver, Colo.). The polymerization reaction contained, in a final volume of 200 μl, tubulin protein from bovine brain (2.5 mg/ml), 80 mM PIPES buffer, pH 6.8, 1 mM MgCl2, 1 mM EGTA, 1 mM GTP and 10% glycerol. […] Samples were incubated at 35° C. in quartz microcells and the rate of tubulin polymerization was followed over 20 min by measuring the increased absorbance of the solution at OD340nm, using a Shimadzu UV-160 spectrophotometer equipped with dual-beam optics and a thermostatically-controlled cell holder. […]

The subject of series [6] is L1210 lymphoblastic leukemia cells. In words: Inhibition of L1210 tumor cell growth in vitro (Coulter counter). Particulars: for reduction of L1210 cell numbers vs control: 6.25 μM; for inhibition at 50 µM: 3 and 4 days in culture, read-out: inhibition of L1210 cell growth (% reduction of control cell numbers). The series is classed as cell-based, Murine. The procedure: Cells were plated at an initial density of 1×10^4 cells/0.5 ml/well in RPMI 1640 medium, containing 7.5% fortified bovine calf serum, and grown at 37° C. for 4 days in a humidified incubator in 5% CO2 in air. Cells were incubated in the presence or absence (^•, control) of 50 μM 3A (▪), 2D & 2E (□),3D & 3E (▴), 2B & 2C (Δ) 2A (♦), 3B & 3C (⋄), or 10 μM CPT (∘) and their density was monitored in triplicate every 24 h using a Coulter counter. Cells numbers are plotted on a logarithmic scale.
as §1
For tumor cell growth, L1210 cells were resuspended in fresh serum-containing RPMI 1640 medium, plated at an initial density of 1×10^4 cells/0.5 ml, and incubated in 48-well Costar cell culture plates (Costar, Cambridge, Mass.). Cells were grown for 4 days in the presence or absence of drugs and their density was monitored every 24 h using a Coulter counter (Coulter Electronics, Ltd., Luton Beds, England). Data of all in vitro experiments were analyzed using Student's t-test with the level of significance set at P<0.05.

The target in series [7] is acetylcholinesterase (AChE) (UniProt O42275). The series is classed as biochemical, electric eel; fetal bovine serum. Particulars: read-out: AChE inhibition constant Ki ± std. error; 30° C., pH 8.0. The procedure:
Acetylcholinesterase Assay and Inhibition Kinetics: Tricyclic pyrones of this invention were tested for inhibition of AChE. […] Reactions were carried out at 30° C. in 0.1 M sodium phosphate buffer at pH 8.0 in the presence of […] and 3.3×10^−4 M 3-carboxy-4-nitrophenyl disulfide. Aliquots of incubating mixtures containing enzyme alone, or enzyme in the presence of each carbamate, were withdrawn at selected time intervals and assayed for enzyme activity in order to obtain kinetic data. From the kinetic data, inhibition and bimolecular rate constants were calculated by the equation: [formula]
in which kapp is the pseudo-first-order rate constant.

The next series relates to L1210 leukemic cells. Kind of series: Inhibition of other macromolecule synthesis (RNA and protein synthesis). The series is classed as cell-based.
Where [8] appears, read: Mus musculus, L1210, 50 μM, 90 min + 30 min pulse.

Consider four compounds from patent US6384045B1, “Tricyclic and tetracyclic pyrones” (Kansas State University Research Foundation, priority 1997, dated 2002).

Entries after “also recorded” stand apart in the source; their conditions may differ.

For orientation: inhibition means the relative decrease from the control value, in per cent. The term Ki denotes the equilibrium dissociation constant of an inhibitor or competing ligand from its target. The term melting point denotes the temperature, or range, at which the solid turns liquid.

T2 sequence (P81947 whole entry): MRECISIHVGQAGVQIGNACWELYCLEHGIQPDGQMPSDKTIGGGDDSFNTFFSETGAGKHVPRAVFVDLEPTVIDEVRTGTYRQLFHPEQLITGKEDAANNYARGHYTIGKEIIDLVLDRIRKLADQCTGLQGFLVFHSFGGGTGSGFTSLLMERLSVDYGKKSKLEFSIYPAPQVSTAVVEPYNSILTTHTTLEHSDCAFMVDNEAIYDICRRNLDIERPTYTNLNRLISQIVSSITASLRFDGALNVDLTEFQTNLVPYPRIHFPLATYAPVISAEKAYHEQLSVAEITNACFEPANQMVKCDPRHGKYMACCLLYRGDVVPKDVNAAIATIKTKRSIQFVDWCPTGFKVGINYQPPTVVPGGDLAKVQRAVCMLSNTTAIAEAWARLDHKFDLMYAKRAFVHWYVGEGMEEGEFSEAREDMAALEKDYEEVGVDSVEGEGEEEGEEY
T2 sequence (Q6B856 whole entry): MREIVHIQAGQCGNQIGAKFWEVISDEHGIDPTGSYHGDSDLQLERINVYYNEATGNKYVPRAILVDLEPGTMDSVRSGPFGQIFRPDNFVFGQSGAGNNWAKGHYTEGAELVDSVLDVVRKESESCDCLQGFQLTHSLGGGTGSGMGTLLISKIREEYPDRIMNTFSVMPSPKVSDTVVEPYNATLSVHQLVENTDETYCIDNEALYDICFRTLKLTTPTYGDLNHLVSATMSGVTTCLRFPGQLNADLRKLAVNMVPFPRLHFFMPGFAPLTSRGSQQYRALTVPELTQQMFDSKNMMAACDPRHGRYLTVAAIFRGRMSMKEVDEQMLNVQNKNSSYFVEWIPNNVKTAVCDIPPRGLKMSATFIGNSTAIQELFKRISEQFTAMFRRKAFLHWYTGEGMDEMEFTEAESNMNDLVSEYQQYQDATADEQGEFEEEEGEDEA
acetylcholinesterase (AChE), sequence (O42275 whole entry): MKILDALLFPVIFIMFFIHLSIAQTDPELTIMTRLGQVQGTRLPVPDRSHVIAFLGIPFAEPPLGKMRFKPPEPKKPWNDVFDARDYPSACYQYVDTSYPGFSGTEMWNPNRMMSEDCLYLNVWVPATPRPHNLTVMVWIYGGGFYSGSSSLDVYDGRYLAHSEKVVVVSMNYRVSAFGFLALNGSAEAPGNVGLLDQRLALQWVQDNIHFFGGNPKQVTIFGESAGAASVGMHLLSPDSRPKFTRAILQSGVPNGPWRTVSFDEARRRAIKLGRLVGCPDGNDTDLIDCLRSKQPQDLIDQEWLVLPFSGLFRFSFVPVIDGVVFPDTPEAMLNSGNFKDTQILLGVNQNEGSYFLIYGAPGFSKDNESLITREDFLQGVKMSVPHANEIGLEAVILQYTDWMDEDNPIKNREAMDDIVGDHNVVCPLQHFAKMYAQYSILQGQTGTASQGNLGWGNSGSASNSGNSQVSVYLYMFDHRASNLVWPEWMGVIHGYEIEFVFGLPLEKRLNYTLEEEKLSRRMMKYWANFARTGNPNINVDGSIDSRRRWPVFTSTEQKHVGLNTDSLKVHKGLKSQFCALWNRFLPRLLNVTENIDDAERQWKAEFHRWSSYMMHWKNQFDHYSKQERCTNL

As for `O=c1oc(-c2cccnc2)cc2c1C=C1CCCCC1O2` (stereo not drawn) [Compound 2A, 3-(3-pyridyl)-1H-5a,6,7,8,9-pentahydro-1-oxopyrano[4,3-b][1]benzopyran], the “inhibition of growth of EMT6 mammary carcinoma cells” value in series [1] is on record as “greater inhibitory effect than tricyclic pyrone 3A”. In addition, the IC50 in series [2] is 50 µM; in [4] (Mus musculus, L1210 cells, 2 h) it was approximately 8.5 µM; in series [6] (Mus musculus, L1210, 24 h, 1 day) it was 11000 nM; in series [6] (Mus musculus, L1210, 48 h, 2 days), 2000 nM; in series [6] (Mus musculus, L1210, 72 h, 3 days) it was 1100 nM; in series [6] (Mus musculus, L1210, 96 h, 4 days) it was 1100 nM. In series [3], the “inhibition of growth of MCF-7 human breast cancer cells” value is on record as “greater inhibitory effect than tricyclic pyrone 3A”. Moreover, the inhibition at 50 µM lay within 79 to 91% in [4] (setting [8]) and 91 to 100% in series [6] (Mus musculus, L1210). In addition, the “inhibition of tubulin polymerization (OD340nm)” value in series [5] is recorded as “completely inhibit polymerization of pure tubulin; also recorded: completely inhibits tubulin polymerization; also recorded: no significant MT polymerization can be detected”. Besides, the “inhibition of tumor cell growth” value in [6] (1.56 μM, after 24 h) is “no effect”. The “times less potent than CPT at inhibiting leukemic cell growth” value in series [6] (6.25 μM 2A mimics 0.78 μM CPT over 4 days) is “about 8 times”. The “reduction of L1210 cell numbers vs control” value is given as 28% in [6] (1 day), 74% in [6] (2 days), 90% in series [6] (3 days) and 94% in series [6] (4 days). This compound also came in with an inhibition at 1.56 µM in [6] (Mus musculus, L1210, 1.56 μM, after 96 h) of 83%.

As to `Cc1cc2c(c(=O)o1)C=C1CCCCC1O2` (stereo not drawn) [Compound 1A, 3-methyl-1H-5a,6,7,8,9-pentahydro-1-oxopyrano[4,3-b]-[i]benzopyran], the inhibition at 50 µM in series [4] (setting [8]) lay within 17 to 32%. Further, the Ki in [7] turned out to be 7 ± 1.2 µM.

For the compound `COc1ccc(-c2cc3c(c(=O)o2)C=C2CCCCC2O3)cc1OC` (stereo not drawn) [Compound 3A, 3-(3,4-dimethoxyphenyl)-1H-5a,6,7,8,9-pentahydro-1-oxopyrano[4,3-b][1]benzopyran], the IC50 is 63 µM in [2] and approximately 8.5 µM in series [4] (Mus musculus, L1210, 2 h). Besides, the inhibition at 25 µM in series [4] (Mus musculus, L1210, 25 μM, 90 min + 30 min pulse) amounted to 62%. The inhibition at 50 µM in [4] (setting [8]) lay in the range of 79 to 91%; in series [6] (Mus musculus, L1210) it was 91 to 100%. Besides, the Ki in series [7] came to 23 ± 3.5 µM. The “inhibition of macromolecule synthesis (RNA and protein synthesis)” value with L1210 leukemic cells is “more potent inhibitor of macromolecule synthesis than the 3-pyridyl substituted tricyclic pyrone 2A”.

Compound `O=c1cc(O)cc(-c2cccnc2)o1` [Compound 5B, 4-hydroxy-6-(3-pyridyl)-2-pyrone] had a melting point of 187 to 189 °C. Besides, the “inhibition of DNA synthesis in L1210 cells” value in [4] (25 μM, 90 min + 30 min pulse) was “no significant effects”. Moreover, the “inhibition of DNA synthesis in L1210 cells” value in [4] (50 μM, 90 min + 30 min pulse, 50 µM) is on record as “no effect; also recorded: ineffective; also recorded: fail to inhibit DNA synthesis”.
